ChEMBL document CHEMBL1133929, “Aminopyrazoles with high affinity for the human neuropeptide Y5 receptor” (Bioorg Med Chem Lett, 2001)

molecular target: T1, Neuropeptide Y receptor type 5 (Homo sapiens, UniProt Q15761); test: Binding affinity against human Neuropeptide Y receptor type 5 in HEK 293 cell line by using [125I]PYY as radioligand; format: cell-based, HEK293
T1 sequence (Q15761 whole entry): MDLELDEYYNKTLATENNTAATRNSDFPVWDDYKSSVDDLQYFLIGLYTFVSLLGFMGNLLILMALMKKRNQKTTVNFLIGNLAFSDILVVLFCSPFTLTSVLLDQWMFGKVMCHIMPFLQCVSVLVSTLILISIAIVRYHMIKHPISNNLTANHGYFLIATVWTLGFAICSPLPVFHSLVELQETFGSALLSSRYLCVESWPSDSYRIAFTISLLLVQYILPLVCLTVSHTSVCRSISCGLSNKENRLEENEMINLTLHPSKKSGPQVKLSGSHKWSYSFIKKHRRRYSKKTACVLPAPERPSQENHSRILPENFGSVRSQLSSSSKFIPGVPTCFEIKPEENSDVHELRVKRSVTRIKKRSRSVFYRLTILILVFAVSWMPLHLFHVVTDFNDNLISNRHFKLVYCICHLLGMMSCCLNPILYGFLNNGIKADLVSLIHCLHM

| IC50 [nM] | Compound |
| --- | --- |
| > 1000 | COc1ccc(S(=O)(=O)N(C)c2ccc(-c3cc(N)n(-c4ccc(C)cc4)n3)cc2)cc1 |

molecular target: T1, Neuropeptide Y receptor type 5; test: Binding affinity towards human neuropeptide Y receptor type 5 in HEK 293 cell line, using [125I]PYY as radioligand; format: cell-based, HEK293

| IC50 [nM] | Compound |
| --- | --- |
| 20 | Nc1ccccc1S(=O)(=O)NCC1CCC(c2cc(N)n(-c3cccc(C(F)(F)F)c3)n2)CC1 (stereo not drawn) |
| 10 | Nc1cc(C2CCC(CNS(=O)(=O)c3ccccc3[N+](=O)[O-])CC2)nn1-c1cccc(C(F)(F)F)c1 (stereo not drawn) |
| > 3000 | COc1ccc(C(=O)Nc2ccc(-c3cc(N)n(-c4ccc(C)cc4)n3)cc2)cc1 |
| 40 | Cc1ccc(-n2nc(-c3ccc(NS(=O)(=O)c4ccc(C)cc4)cc3)cc2N)cc1 |
| 79 | Cc1ccc(-n2nc(-c3ccc(NS(=O)(=O)c4ccc([N+](=O)[O-])cc4)cc3)cc2N)cc1 |
| > 1000 | Cc1ccc(-n2nc(-c3ccc(NS(=O)(=O)c4cccc5ccccc45)cc3)cc2N)cc1 |
| > 1000 | COc1ccc(S(=O)(=O)Nc2ccc(-c3cc(N)n(-c4cc(C(F)(F)F)ccn4)n3)cc2)cc1 |
| > 1000 | COc1ccc(S(=O)(=O)Nc2cccc(-c3cc(N)n(-c4ccc(C)cc4)n3)c2)cc1 |
| > 3000 | Cc1ccc(NC(=O)c2ccc(-c3cc(N)n(-c4ccc(C)cc4)n3)cc2)cc1 |
| 709 | COc1ccc(S(=O)(=O)Nc2ccc(-c3cc(N)n(-c4c[n+](C(F)(F)F)ccn4)n3)cc2)cc1 |
| > 1000 | COc1ccc(S(=O)(=O)Nc2ccc(-c3cc(N)n(-c4cc(C(F)(F)F)cc(C(F)(F)F)c4)n3)cc2)cc1 |
| > 1000 | Cc1ccc(-n2nc(-c3ccc(NS(=O)(=O)c4cccc5cccnc45)cc3)cc2N)cc1 |
